Where two headings read alike, the source gives them in different places.
Legend:
[1] = target: purified human Factor XIa (Homo sapiens (Human), UniProt P03951); assay: Factor XIa Assay; format: biochemical; details: purified human Factor XIa 40 pM; substrate Z-Gly-Pro-Arg-AFC 100 μM; 50 mM HEPES pH 7.4; read-out: Human FXIa Ki
In short: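 Purified human FXIa at 40 pM final with fluorogenic Z-Gly-Pro-Arg-AFC at 100 μM, in 50 mM HEPES pH 7.4, 150 mM NaCl, 5 mM CaCl2, 0.1% PEG 8000, at rt or 37° C. Initial velocities measured after enzyme–inhibitor equilibration; Ki derived from Vo/Vi versus [I] assuming competitive inhibition.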

[2] = target: purified Human plasma Kallikrein (Homo sapiens (Human), UniProt P03952); assay: Kallikrein Assay; format: biochemical
In short: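 Purified human plasma kallikrein (0.5 nM) with fluorogenic Ac-K-P-R-AFC ([…]) in 50 mM HEPES pH 7.4, 150 mM NaCl, 5 mM CaCl2, 0.1% PEG 8000, at rt or 37 °C. Substrate hydrolysis rate read with and without inhibitor; IC50 from four-parameter logistic fit, converted to Ki by Cheng–Prusoff.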

[3] = purified Human plasma Kallikrein 0.5 nM, substrate Acetyl-K-P-R-AFC, 50 mM HEPES pH 7.4, Ki from IC50 by Cheng Prusoff

Sequence of purified Human plasma Kallikrein (P03952 391-638): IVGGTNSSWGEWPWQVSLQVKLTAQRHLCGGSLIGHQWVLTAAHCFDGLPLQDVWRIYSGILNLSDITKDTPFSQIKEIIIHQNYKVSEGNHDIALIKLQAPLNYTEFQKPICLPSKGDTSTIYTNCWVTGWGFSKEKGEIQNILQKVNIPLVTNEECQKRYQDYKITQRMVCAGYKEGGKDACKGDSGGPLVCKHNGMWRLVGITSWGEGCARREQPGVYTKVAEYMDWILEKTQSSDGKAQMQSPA
Sequence of purified Human plasma Kallikrein (P03952 20-390 partner): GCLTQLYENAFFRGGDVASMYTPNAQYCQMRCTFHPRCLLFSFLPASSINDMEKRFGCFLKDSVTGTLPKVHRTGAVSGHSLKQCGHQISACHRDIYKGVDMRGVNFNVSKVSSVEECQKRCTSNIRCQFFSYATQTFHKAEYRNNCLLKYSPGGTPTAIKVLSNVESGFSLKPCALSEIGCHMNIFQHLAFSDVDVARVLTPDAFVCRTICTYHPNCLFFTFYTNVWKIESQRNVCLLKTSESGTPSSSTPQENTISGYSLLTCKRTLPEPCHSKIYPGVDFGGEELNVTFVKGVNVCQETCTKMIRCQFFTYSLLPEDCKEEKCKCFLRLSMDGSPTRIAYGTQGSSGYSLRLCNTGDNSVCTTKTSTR
Sequence of purified human Factor XIa (P03951 388-625): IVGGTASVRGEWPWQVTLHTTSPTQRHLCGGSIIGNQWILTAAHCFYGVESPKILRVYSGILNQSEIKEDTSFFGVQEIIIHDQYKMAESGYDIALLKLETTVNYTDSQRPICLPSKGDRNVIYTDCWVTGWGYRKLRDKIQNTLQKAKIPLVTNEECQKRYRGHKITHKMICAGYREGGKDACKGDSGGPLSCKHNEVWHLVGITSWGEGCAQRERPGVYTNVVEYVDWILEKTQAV
Sequence of purified human Factor XIa (P03951 19-387 partner): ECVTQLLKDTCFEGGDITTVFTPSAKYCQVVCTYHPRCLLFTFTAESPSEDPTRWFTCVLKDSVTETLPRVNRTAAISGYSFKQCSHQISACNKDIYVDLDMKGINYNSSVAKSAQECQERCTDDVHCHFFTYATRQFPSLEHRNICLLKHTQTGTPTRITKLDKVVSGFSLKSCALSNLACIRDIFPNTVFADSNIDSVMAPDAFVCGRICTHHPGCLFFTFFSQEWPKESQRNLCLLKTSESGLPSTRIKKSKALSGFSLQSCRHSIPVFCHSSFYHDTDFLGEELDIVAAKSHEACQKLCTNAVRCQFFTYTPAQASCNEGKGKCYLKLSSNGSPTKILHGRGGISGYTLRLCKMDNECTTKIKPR

Row | SMILES | Ki [1] [nM] | Ki [2, 3] [nM] | Ki [2] [nM]
1 | O=C1CCCC[C@H](c2ccc(-c3cc(Cl)ccc3-n3cnnn3)c[n+]2[O-])c2cccc(c2)-c2cc(C(=O)O)ccc2N1 [Example 4-b, 2-(2^5-Carboxy-4-oxo-3-aza-1(1,3),2(1,2)-dibenzenacyclononaphane-9-yl)-5-(5-chloro-2-(1H-tetrazol-1-yl)phenyl)pyridine 1-oxide] | 8.4 | – | 332
2 | COC(=O)Nc1ccc2c(c1)NC(=O)CCCCC(c1ccc(-c3cc(Cl)ccc3-n3cc(C(F)F)nn3)c[n+]1[O-])c1cccc-2c1 (single isomer, unassigned) [Example 36-a, 5-(5-chloro-2-(4-(difluoromethyl)-1H-1,2,3-triazol-1-yl)phenyl)-2-(2^4-((methoxycarbonyl)amino)-4-oxo-3-aza-1(1,3),2(1,2)-dibenzenacyclononaphane-9-yl)pyridine 1-oxide] | 0.26 | 0.81 | –
3 | O=C1CCCC[C@H](c2ccc(-c3cc(Cl)ccc3-n3cnnn3)c[n+]2[O-])c2cccc(c2)-c2cc(F)ccc2N1 [Example 2-a, (S) 5-(5-chloro-2-(1H-tetrazol-1-yl)phenyl)-2-(2^5-fluoro-4-oxo-3-aza-1(1,3),2(1,2)-dibenzenacyclononaphane-9-yl)pyridine 1-oxide] | 0.09 | 2.7 | –
4 | C[C@H]1CCC[C@@H](c2ccc(-c3cc(Cl)ccc3-n3cnnn3)c[n+]2[O-])c2cccc(c2)-c2cc(F)ccc2NC1=O [Example 3-c, 5-(5-Chloro-2-(1H-tetrazol-1-yl)phenyl)-2-((5S,9R)-2^5-fluoro-5-methyl-4-oxo-3-aza-1(1,3),2(1,2)-dibenzenacyclononaphane-9-yl)pyridine 1-oxide] | 26.3 | 660 | –

Second part, led by results:

Row | Ki [1] [nM] | Ki [2, 3] [nM] | SMILES | Ki [2] [nM]
5 | 0.47 | 56.7 | Cc1[nH]c2nc1-c1cc(F)ccc1NC(=O)CCCC[C@@H]2c1ccc(-c2cc(F)ccc2-n2cnnn2)c[n+]1[O-] (single isomer, unassigned) [Example 142] | –
6 | 0.15 | 2.44 | CCc1[nH]c2nc1-c1ccc(NC(=O)OC)cc1NC(=O)CCCC[C@@H]2c1ccc(-c2c(F)cccc2OC(F)F)c[n+]1[O-] (single isomer, unassigned) [Example 127] | –
7 | 6.34 | 1.29 | COC(=O)Nc1ccc2c(c1)NC(=O)C(C)CCCC(c1ccc(-c3c(F)ccc(Cl)c3F)c[n+]1[O-])c1ccc(F)c-2c1 (single isomer, unassigned) [Example 86-a, 5-(3-Chloro-2,6-difluorophenyl)-2-(1^6-fluoro-2^4-((methoxycarbonyl)amino)-5-methyl-4-oxo-3-aza-1(1,3),2(1,2) -dibenzenacyclononaphane-9-yl)pyridine 1-oxide] | –
8 | 0.36 | 2.96 | COC(=O)Nc1ccc2c(c1)NC(=O)CCCC[C@H](c1ccc(-c3c(F)cccc3C(F)(F)F)c[n+]1[O-])c1nc-2c(C)[nH]1 (single isomer, unassigned) [Example 122] | –
